For the first assay, the target named is T1, Human Recombinant Matriptase 2 (Homo sapiens, UniProt Q8IU80).
T1 construct: made in house
T1 sequence (Q8IU80 1-811): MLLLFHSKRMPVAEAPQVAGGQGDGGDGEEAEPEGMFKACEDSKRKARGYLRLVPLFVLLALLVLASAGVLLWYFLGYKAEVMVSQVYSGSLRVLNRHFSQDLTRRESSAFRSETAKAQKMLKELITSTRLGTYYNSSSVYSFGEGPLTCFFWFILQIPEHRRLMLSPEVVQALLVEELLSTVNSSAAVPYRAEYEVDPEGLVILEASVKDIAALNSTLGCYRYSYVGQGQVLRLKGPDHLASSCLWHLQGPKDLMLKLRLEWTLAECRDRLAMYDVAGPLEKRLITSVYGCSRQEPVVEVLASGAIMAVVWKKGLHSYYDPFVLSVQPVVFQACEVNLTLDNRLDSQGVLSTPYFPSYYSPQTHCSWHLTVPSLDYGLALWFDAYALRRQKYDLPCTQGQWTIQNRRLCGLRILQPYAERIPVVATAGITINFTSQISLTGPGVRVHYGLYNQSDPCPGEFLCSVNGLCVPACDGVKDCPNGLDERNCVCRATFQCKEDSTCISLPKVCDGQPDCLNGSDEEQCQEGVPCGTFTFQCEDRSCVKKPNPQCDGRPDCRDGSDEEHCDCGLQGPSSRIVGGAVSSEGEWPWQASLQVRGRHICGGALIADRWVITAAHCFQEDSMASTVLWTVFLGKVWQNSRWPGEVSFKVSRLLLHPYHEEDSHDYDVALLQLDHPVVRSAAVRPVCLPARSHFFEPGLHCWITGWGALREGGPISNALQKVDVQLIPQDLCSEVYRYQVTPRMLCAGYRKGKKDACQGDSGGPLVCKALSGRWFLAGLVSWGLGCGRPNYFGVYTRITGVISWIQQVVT
The experiment in a line: Matriptase 2 inhibition, fluorescence based assay (Method I). Conditions: Table A; Ki of Matriptase-2, class symbols; read-out: Mat-2 Ki. The class given is biochemical. In outline: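 In-house recombinant enzyme (3.5 nM), preincubated 30 min with compound, then Boc-Gln-Ala-Arg-AMC substrate (62 μM) in 50 mM Tris pH 7.5, 150 mM NaCl, 0.01% gelatin, 1% DMSO, 25 °C. Fluorescence (Ex 360/Em 480 nm) read 60 min after substrate; IC50 from variable-slope sigmoidal fit of % inhibition.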
For orientation: Ki means a measure of affinity in units of concentration, obtained from inhibition or displacement. For `NCc1ccc2cc(-c3nnn[nH]3)n(Cc3cc(NS(=O)(=O)CC[C@@H]4CCCN4)cc4ccccc34)c2c1` [Compound 399, (S)—N-(4-((6-(aminomethyl)-2-(1H-tetrazol-5-yl)-1H-indol-1-yl)methyl)naphthalen-2-yl)-2-(pyrrolidin-2-yl) ethane-1-sulfonamide], the inhibitory constant (Ki) was 0.1 to 0.5 µM.

Staying with this assay, now noted: Table A; Ki of Matriptase-2 given as class symbols; read-out: Mat-2 Ki.
Turning to `CC(C)(C)n1cncc1COC(=O)c1cc2ccc(CN)cc2n1Cc1cc(NS(=O)(=O)Cc2ccccc2)cc2ccccc12` [Compound 386, (1-tert-butyl-1H-imid-azol-5-yl)methyl 6-(aminomethyl)-1-{[3-(phenylmethanesulfon-amido)naphthalen-1-yl]-methyl}-1H-indole-2-carboxylate], the Ki was 0.1 to 0.5 µM.
With `C[C@@H](c1ccccc1)S(=O)(=O)Nc1cc(Cn2c(C(=O)OCC3CCN(C)CC3)cc3ccc(CN)cc32)c2ccccc2c1` [Compound 387, (1-methylpiperidin-4-yl)-methyl 6-(aminomethyl)-1-({3-[(1S)-1-phenyl-ethanesulfonamido]-naphthalen-1-yl}methyl)-1H-indole-2-carboxylate], the Ki fell in the range of 0.1 to 0.5 µM.
The same measure, in the same setting: the same measure for `COCCN1CCN(CCS(=O)(=O)Nc2cc(Cn3c(C(=O)O)cc4ccc(CN)cc43)c3ccccc3c2)CC1` [Compound 388, 6-(aminomethyl)-1-[(3-{2-[4-(2-methoxyethyl)-piperazin-1-yl]ethanesul-fonamido}naphthalen-1-yl)methyl]-1H-indole-2-carboxylic acid]: 0.1 to 0.5 µM; for `NCc1ccc2cc(C(=O)O)n(Cc3cc(NS(=O)(=O)CC[C@@H]4CCCN4)cc4ccccc34)c2c1` [Compound 389, 6-(aminomethyl)-1-[(3-{2-[(2S)-pyrrolidin-2-yl]ethanesulfonamido}-naphthalen-1-yl)methyl]-1H-indole-2-carboxylic acid]: 0.1 to 0.5 µM; for `COCCN1CCC(CS(=O)(=O)Nc2cc(Cn3c(C(=O)O)cc4ccc(CN)cc43)c3ccccc3c2)CC1` [Compound 390, 6-(aminomethyl)-1-[(3-{[1-(2-methoxyethyl)-piperidin-4-yl]methane-sulfonamido}naphthalen-1-yl)methyl]-1H-indole-2-carboxylic acid]: 0.1 to 0.5 µM.
Same read-out and setting: for `NCc1ccc2cc(C(=O)O)n(Cc3cc(NS(=O)(=O)CC4CCC(C(F)(F)F)CC4)cc4ccccc34)c2c1` (centres unmarked) [Compound 392] the value was 0.5 to 3 µM; for `NCc1ccc2cc(C(=O)O)n(Cc3cc(NS(=O)(=O)N4CCC(C(F)(F)F)CC4)cc4ccccc34)c2c1` [Compound 393, 6-(aminomethyl)-1-{[3-({[4-(trifluoromethyl)-piperidin-1-yl]sulfonyl}-amino)naphthalen-1-yl]-methyl}-1H-indole-2-carboxylic acid], 0.5 to 3 µM; for `COCCN1CCN(C(=O)Nc2cc(Cn3c(C(=O)O)cc4ccc(CN)cc43)c3ccccc3c2)CC1` [Compound 394, 6-(aminomethyl)-1-((3-(4-(2-methoxyethyl)piperazine-1-carboxamido)naphthalen-1-yl)methyl)-1H-indole-2-carboxylic acid], 0.5 to 3 µM.
Same read-out and setting: for `CC(C)(C)S(=O)(=O)N1CCC(CNC(=O)Nc2cc(Cn3c(C(=O)O)cc4ccc(CN)cc43)c3ccccc3c2)CC1` [Compound 396, 6-(aminomethyl)-1-({3-[({[1-(2-methylpropane-2-sulfonyl)piperidin-4-yl]methyl}carbamoyl)-amino]naphthalen-1-yl}-methyl)-1H-indole-2-carboxylic acid] the value was 0.1 to 0.5 µM; for `CS(=O)(=O)N1CCC(CNC(=O)Nc2cc(Cn3c(C(=O)O)cc4ccc(CN)cc43)c3ccccc3c2)CC1` [Compound 397, 6-(aminomethyl)-1-{[3-({[(1-methanesulfonyl-piperidin-4-yl)methyl]-carbamoyl}amino)naph-thalen-1-yl]methyl}-1H-indole-2-carboxylic acid], 0.1 to 0.5 µM.

The values are drawn from US20240400553A1, “AMINE BASED MATRIPTASE 2 INHIBITORS AND USES THEREOF” (Disc Medicine, Inc., priority 2023, published 2024).
